Activity calls are given as the source filed them. The calls are words filed in the database; no cut-off is given here.
What was measured:
Mus musculus [1] = experiment: Anxiolytic activity in BALB/c mouse at 3.3 mg/kg, po after 5 mins in presence of 1 mg/kg yohimbine by cylinder exploratory test; assay type: functional, organism-based
Mus musculus [2] = experiment: Anxiolytic activity in BALB/c mouse assessed as reduction in anxiety like behaviour administered orally 1 hr prior to experiment by cylinder exploratory test; assay type: functional; settings: for ED50: po
Mus musculus [3] = experiment: Anxiolytic activity in BALB/c mouse at 3.3 mg/kg, po after 5 mins in presence of GABAA receptor antagonist 0.7 mg/kg bicuculline by cylinder exploratory test; assay type: functional, organism-based
[4] = Effect on locomotor activity in BALB/c mouse assessed as reduction in time spent in rotarod at <25 mg/kg, po by rotarod test; assay type: ADME, organism-based; settings: in vivo
Mus musculus [5] = experiment: Anxiolytic activity in BALB/c mouse at 3.3 mg/kg, po after 5 mins in presence of 1 mg/kg ketanserin by cylinder exploratory test; assay type: functional, organism-based
Mus musculus [6] = experiment: Anxiolytic activity in BALB/c mouse at 25 mg/kg, po administered 1 hr prior to experiment by cylinder exploratory test relative to control; assay type: functional
Mus musculus [7] = experiment: Anxiolytic activity in BALB/c mouse at 7.7 mg/kg, po after 5 mins in presence of 1 mg/kg yohimbine by cylinder exploratory test; assay type: functional, organism-based
Mus musculus [8] = experiment: Anxiolytic activity in BALB/c mouse at 7.7 mg/kg, po after 5 mins in presence of GABAA receptor antagonist 0.7 mg/kg bicuculline by cylinder exploratory test; assay type: functional, organism-based
Mus musculus [9] = experiment: Anxiolytic activity in BALB/c mouse at 7.7 mg/kg, po after 5 mins in presence of 1 mg/kg ketanserin by cylinder exploratory test; assay type: functional, organism-based
[10] = Effect on locomotor activity in BALB/c mouse assessed as reduction in time spent in rotarod at 100 mg/kg, po measured after 1 hr post treatment by rotarod test; assay type: ADME, organism-based; settings: in vivo

Row | SMILES | Activity (Mus musculus [1]) | Activity (Mus musculus [2]) | ED50 (Mus musculus [2]) [mg/kg] | Activity (Mus musculus [3]) | Activity [4] | Activity (Mus musculus [5]) | Activity (Mus musculus [6]) [%] | Activity (Mus musculus [7]) | Activity (Mus musculus [8]) | Activity (Mus musculus [9]) | Activity [10]
1 | CCOC(=O)[C@]1(C#N)[C@@H](c2ccccc2)Cc2c(c3ccccc3n2C(=O)OC(C)(C)C)[C@@H]1CC=O | Active | Dose-dependent effect | 3.3 | inactive | Non-Toxic | Active | 72 | – | – | – | –
2 | CCOC(=O)[C@]1(C#N)[C@@H](c2ccccc2)Cc2c(c3ccccc3n2Cc2ccccc2)[C@@H]1CC=O | – | Dose-dependent effect | 7.7 | – | Non-Toxic | – | 83.4 | Active | inactive | Active | Toxic

Reference: ChEMBL document CHEMBL4627321, “Enantioselective synthesis of tetrahydrocarbazoles via trienamine catalysis and their anxiolytic-like activity” (Bioorg Med Chem Lett, 2020)
